Measured values published in ChEMBL document CHEMBL4219234, “4-Substituted carbamazepine derivatives: Conformational analysis and sodium channel-blocking properties” (Bioorg Med Chem, 2018).
Active and inactive are the calls of the source. The rule behind the calls is not given here.

How the values were obtained:
[1] = Solubility of the compound in DMSO at > 14.3 uM; assay type: physicochemical
[2] = target: Sodium channel protein type 2 subunit alpha (Homo sapiens) (UniProt Q99250); assay: Inhibition of human Nav1.2 expressed in CHOK1 cells assessed as reduction in peak inward current at 30th pulse using holding potential of -50 mV by patch clamp assay; assay type: cell-based
[3] = Solubility of the compound in DMSO at > 30 uM; assay type: physicochemical

Chain of Sodium channel protein type 2 subunit alpha (Homo sapiens) (Q99250 whole entry, looked up): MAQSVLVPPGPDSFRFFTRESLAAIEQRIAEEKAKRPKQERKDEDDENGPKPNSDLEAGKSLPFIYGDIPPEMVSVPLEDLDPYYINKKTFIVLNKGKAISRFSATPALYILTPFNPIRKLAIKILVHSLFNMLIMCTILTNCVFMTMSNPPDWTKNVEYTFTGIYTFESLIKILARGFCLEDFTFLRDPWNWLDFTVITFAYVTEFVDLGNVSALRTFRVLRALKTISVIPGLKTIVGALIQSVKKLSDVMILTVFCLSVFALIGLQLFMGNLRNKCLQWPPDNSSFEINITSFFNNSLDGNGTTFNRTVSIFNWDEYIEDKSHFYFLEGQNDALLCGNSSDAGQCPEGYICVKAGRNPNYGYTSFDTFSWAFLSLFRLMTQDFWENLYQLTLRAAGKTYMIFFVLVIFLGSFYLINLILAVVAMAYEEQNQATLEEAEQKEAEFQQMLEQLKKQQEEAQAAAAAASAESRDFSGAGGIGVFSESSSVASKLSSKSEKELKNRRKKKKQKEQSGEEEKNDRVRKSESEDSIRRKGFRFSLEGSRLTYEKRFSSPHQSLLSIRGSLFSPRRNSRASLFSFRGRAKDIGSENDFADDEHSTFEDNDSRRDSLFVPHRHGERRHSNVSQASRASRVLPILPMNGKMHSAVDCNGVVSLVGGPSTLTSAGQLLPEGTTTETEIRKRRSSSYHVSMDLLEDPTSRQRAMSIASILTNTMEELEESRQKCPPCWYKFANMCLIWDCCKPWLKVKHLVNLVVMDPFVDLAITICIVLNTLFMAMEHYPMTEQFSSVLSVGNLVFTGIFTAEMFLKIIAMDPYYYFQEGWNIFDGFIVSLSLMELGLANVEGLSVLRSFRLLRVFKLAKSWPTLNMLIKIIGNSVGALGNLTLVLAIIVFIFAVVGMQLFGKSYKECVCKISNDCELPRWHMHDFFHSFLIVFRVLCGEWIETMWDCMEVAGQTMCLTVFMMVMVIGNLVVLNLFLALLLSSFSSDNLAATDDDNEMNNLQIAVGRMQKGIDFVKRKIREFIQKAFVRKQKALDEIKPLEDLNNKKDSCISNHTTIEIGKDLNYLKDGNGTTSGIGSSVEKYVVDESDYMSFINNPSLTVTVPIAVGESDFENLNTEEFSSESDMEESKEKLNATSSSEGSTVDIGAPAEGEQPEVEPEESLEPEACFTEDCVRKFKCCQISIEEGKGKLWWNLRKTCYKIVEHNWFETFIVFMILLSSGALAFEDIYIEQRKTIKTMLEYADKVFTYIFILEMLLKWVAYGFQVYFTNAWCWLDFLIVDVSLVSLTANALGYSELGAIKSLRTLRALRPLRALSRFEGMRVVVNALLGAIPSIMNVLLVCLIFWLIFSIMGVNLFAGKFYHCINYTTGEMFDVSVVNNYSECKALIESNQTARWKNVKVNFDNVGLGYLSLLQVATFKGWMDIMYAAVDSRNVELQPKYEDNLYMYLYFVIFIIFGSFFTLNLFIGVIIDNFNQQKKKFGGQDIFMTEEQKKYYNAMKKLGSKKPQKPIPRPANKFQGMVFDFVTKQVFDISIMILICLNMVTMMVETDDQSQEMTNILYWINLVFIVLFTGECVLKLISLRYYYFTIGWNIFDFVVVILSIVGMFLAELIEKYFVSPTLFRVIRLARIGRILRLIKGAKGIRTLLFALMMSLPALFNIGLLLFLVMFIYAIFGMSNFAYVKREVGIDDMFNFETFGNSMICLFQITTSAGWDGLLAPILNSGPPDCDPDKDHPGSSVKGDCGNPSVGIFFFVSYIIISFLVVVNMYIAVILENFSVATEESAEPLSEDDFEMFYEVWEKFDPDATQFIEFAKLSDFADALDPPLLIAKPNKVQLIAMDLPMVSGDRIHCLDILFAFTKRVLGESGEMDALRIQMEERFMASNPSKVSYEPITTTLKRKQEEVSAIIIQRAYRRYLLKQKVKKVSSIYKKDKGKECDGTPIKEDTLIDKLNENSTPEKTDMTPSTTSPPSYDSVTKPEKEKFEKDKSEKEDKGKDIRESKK

| solubility [1] | inhibition [2] | solubility [3] | SMILES |
| --- | --- | --- | --- |
| Insoluble | Active | – | NC(=O)N1c2ccccc2C=Cc2cccc(Cl)c21 |
| – | Active | Insoluble | Cc1cccc2c1N(C(N)=O)c1ccccc1C=C2 |
| – | Active | – | NC(=O)N1c2ccccc2C=Cc2ccccc21 |
